Results taken from US20200325178A1, “PEPTIDE NUCLEIC ACID MOLECULES FOR TREATMENT OF GRAM POSITIVE BACTERIAL INFECTION” (priority 2017, published 2020).

Legend:
[1] = tested on: S. aureus MRSA strains; assay: Bioscreen-C dose response growth curve of MRSA over 24 hours; assay type: cell-based, Staphylococcus aureus; conditions: HCl salts, doses from 100 μg downwards, 10 mM sodium bicarbonate buffer pH-7.4, OD 420-580 nm
Experimental: Bioscreen-C instrument was used to detect the MIC and MBC of PNA-CPP derivatives against S. aureus MRSA strains. Different concentration of PNA-CPP derivatives were prepared in 10 mM of sodium bicarbonate buffer pH-7.4 and added to ˜5.0 Log 10 CFUs in a Honey comb Bioscreen-C plate.
Compound I-V were assayed against MRSA. FIG. 6-10 show a dose response growth curve of MRSA in presence of increasing concentrations of Compound I-HCl (FIG. 6), Compound II-HCl (FIG. 7), Compound III-HCl (FIG. 8), Compound IV-HCl (FIG. 9), and Compound V-HCl (FIG. 10), determined in a Bioscreen-C spectrophotometer.

[2] = tested on: S. aureus MSSA strains; assay: Bioscreen-C dose response growth curve of MSSA over 24 hours; assay type: cell-based, Staphylococcus aureus; conditions: HCl salts, doses from 100 μg downwards, 10 mM sodium bicarbonate buffer pH-7.4, OD 420-580 nm
Experimental: Bioscreen-C instrument was used to detect the MIC and MBC of PNA-CPP derivatives against S. aureus MSSA strains. Different concentrations of PNA-CPP derivatives were prepared in 10 mM of sodium bicarbonate buffer pH-7.4 and added to ˜5.0 Log 10 CFUs in a Honey comb Bioscreen-C plate.
Compound I-V were assayed against MSSA. FIG. 12-16 show a dose response growth curve of MSSA in presence of increasing concentrations of Compound I-HCl (FIG. 12), Compound II-HCl (FIG. 13), Compound III-HCl (FIG. 14), Compound IV-HCl (FIG. 15), and Compound V-HCl (FIG. 16), determined in a Bioscreen-C spectrophotometer.

**Q.** Which “lowest dose at which no MRSA growth was observed (growth curve)” value [1] does the source give for “Compound III: PNA-CPP conjugate: PNA SEQ ID NO: 51, Glycine-Glycine linker, CPP BXRXRRXRRXRRXR; FIG. 3 (CGTCATACGCGGTCC; all peptide nucleic acid (PNA); PNA conjugated to cell-penetrating peptide via glycine-glycine linker, end not given here, further chemistry not fully specified)” here?
**A.** 12.5 µg

**Q.** What about the “lowest dose at which no MSSA growth was observed (growth curve)” value [2] of the same substance?
**A.** 25 µg
